These results are taken from US20070166336A1, “Stable and palatable oral liquid sumatriptan compositions” (priority 2005, published 2007).

Where two headings read alike, the source gives them in different places.

For series [1] the following is noted: pH 5.
Experimental: The percent of sumatriptan recovered, i.e., the experimentally determined amount (mg/mL) of sumatriptan divided by the theoretical amount present at each stage, is also provided.
The final stage of the excipient screen was used to establish a compatible preservative. […] Specifically, Stage II samples were removed and split into two tubes each containing 2.5 mL and the remaining solution kept as a control. […] These solutions were then stored at 50° C. for one month and periodically analyzed by HPLC.
The stability and solubility of sumatriptan compositions in acetate buffer with the preservative was also tested. These samples were mixed in a 1:1 ratio.
Series [2] is described as follows: Characterization of unknown oxidation impurity (LC-MS, HPLC). The format is physicochemical. As to the method:
HPLC conditions were the same as that for impurity C and D analysis, and the product peaks were injected into an electrospray ionization mass spectrometer.
To confirm whether oxidation of sumatriptan would lead to the formation of this impurity, sumatriptan succinate was incubated with 25% H2O2 for 2 hours and 24 hours followed by LC-MS analysis.
To test the presence of this impurity in sumatriptan succinate procured from different vendors, solid sumatriptan in powder form as well as sumatriptan dissolved in water were analyzed by HPLC.

Series [3] is described as follows: physchem. The following applies: thermodynamic from solid. As to the method: By apparent solubility is meant the solubility of the sumatriptan determined visually. The materials used were sumatriptan succinate and various reagents for preparation of the buffers. Hydrochloric acid was used for preparation of the pH 2 buffer, acetate for preparation of the pH 5 buffer, phosphate for preparation of the pH 7 buffer, and carbonate for the pH 9 buffer. The concentration of the buffers was 0.1 M.
A 1 mL aliquot of each buffer was placed in a glass scintillation vial. To this volume was added a small amount of sumatriptan. Each amount of sumatriptan was weighed on a balance. Weights typically ranged from between 5 and 35 mg. After each new addition of sumatriptan, the vial was shaken and visually inspected to determine if all of the sumatriptan was in solution. When small particles of undissolved sumatriptan appeared, no further amount of sumatriptan was added. These amounts of sumatriptan added before the final addition was added together and were listed as the lower limit of each pH. The upper limit of solubility was taken to be the sum total of sumatriptan added to the buffer when undissolved sumatriptan appeared. […] The diamond symbol in FIG. 1 represents the average value between the lower and upper limit.

Series [4] in a line: Stability of sumatriptan succinate in water and buffers of pH 2, 5, 7, 9 (HPLC). In kind it is physicochemical. The note with it: buffers with a pH of about 2 to 5, one month at 50° C. (additional studies not presented).
Experimental: After mixing thoroughly, a 1 mL aliquot was removed for high performance liquid chromatography (HPLC) analysis. The remaining volume was then split into a glass tube to be kept at room temperature, and another glass tube to be kept at 50° C. Samples were pulled periodically from the 50° C. tubes for one month and analyzed by HPLC.
As used herein, degradation in percent area by area is that amount of degradation that is the ratio of the sum total of degradation peaks divided by the response factor (sumatriptan's standard curve slope value) multiplied by 100, and not a quantified amount of degradation.
The conditions of series [5]: cited from earlier work.
Series [6] can be described thus: Formulation at different pH: impurities after two weeks at 50° C. In kind it is physicochemical. The note with it: unbuffered (self-buffering). As to the method: Sumatriptan succinate has a self-buffering capacity due to it being a succinic acid salt.
These formulations were kept on stability studies at 50° C. for two weeks.
Levels of each impurity are expressed as percentage (w/w) of sumatriptan, and RT is the retention time in minutes.

On to PEG 400, for which the “Percent Degradation After 1 month at 50° C.” value in series [1] is on record as 14%.
Same read-out and setting: next, Xanthan Gum: 0.07%; Tween ™ 80: 0.49%; HPMC: 0.64%.
As usually defined, the solubility is the dissolved amount per volume that the medium holds. Usually bioavailability stands for dose-corrected exposure relative to a reference, in per cent. As usually defined, the Tmax is the time from dosing to the highest level. `CNS(=O)(=O)Cc1ccc2[nH]cc(CCN(C)C)c2c1.O=C(O)CCC(=O)O` [Sumatriptan succinate, 3-[2-(dimethylamino)ethyl]-N-methyl-indole-5-methanesulfonamide succinate (1:1)]: the “oxidation impurity (chromatogram)” value is “formation of the oxidation impurity” in series [2] (25% v/v H2O2 solution at room temperature for 2 hours), “not present” in series [2] (solid powder at 4° C.) and “not present” in series [2] (solid powder at 50° C.). Moreover, in series [2] (aqueous solution at 50° C. for two weeks), the “oxidation impurity (HPLC)” value was “formed upon incubation”. Further, the solubility in series [3] (aqueous buffer, apparent solubility) was 100 to 115 mg/mL; in series [3] (pH 2, simulated gastric fluid, Apparent solubility, Lower Limit), 149 mg/mL; in series [3] (pH 2, simulated gastric fluid, Apparent solubility, Upper Limit) it was 162 mg/mL; in series [3] (pH 5, aqueous buffer, Apparent solubility, Lower Limit) it was 110 mg/mL; in series [3] (pH 5, aqueous buffer, Apparent solubility, Upper Limit) it was 120 mg/mL; in series [3] (pH 7, aqueous buffer, Apparent solubility, Lower Limit) it was 138 mg/mL. Also, the solubility came out at 151 mg/mL in series [3] (pH 7, aqueous buffer, Apparent solubility, Upper Limit); 138 mg/mL in series [3] (pH 9, aqueous buffer, Apparent solubility, Lower Limit); 140 mg/mL in series [3] (pH 9, aqueous buffer, Apparent solubility, Upper Limit). Besides, the degradation in series [4] was determined as 1.5%. Moreover, the bioavailability is 97% in series [5] (6 mg subcutaneous injection) and 17% in series [5] (20 mg nasal spray). Moreover, the Tmax is 2.5 h in series [5] (50 mg tablet), 1 h in series [5] (nasal spray) and 0.2 h in series [5] (subcutaneous injection). The elimination half-life result in series [5] (in vivo) was “about 2 hours”. In series [5] (oral administration), the absolute bioavailability result is reported as “about 14%”. In addition, in series [6], the pH of solutions is on record as 4.5-5.
